Experimental data as given in patent publication US20260001928A1 (CORTERIA PHARMACEUTICALS, priority 2022, published 2026).
*1 amine or outer side, *2 acyl side, *3 side chain or, on linkers, in order; H or OH if unused. Where a SMILES comes first, the peptide text is derived from it. Side-chain parts run from the residue outwards. [ ]: non-standard residue; d: D form. The star is where a group is joined. C20 diacid = O=C(O)CCCCCCCCCCCCCCCCCCC(=O)*; C18 diacid = O=C(O)CCCCCCCCCCCCCCCCC(=O)*; γGlu = O=C(O)[C@H](CCC(=O)[*:2])N[*:1]; NMeI = CC[C@H](C)[C@H](NC)C(=O)O; AEEA = NCCOCCOCC(=O)O; Aib = CC(C)(N)C(=O)O

Key:
human CRF2a receptor = target: T1, human CRF2a receptor (Homo sapiens, UniProt Q13324); experiment: Activity at human CRF2a receptor, cAMP functional assay in TeloHEAC cells; assay type: cell-based; conditions: TeloHEAC cells stably expressing human CRF2a receptor, relative to urocortin 2 (100 nM = 100%)
T1 construct: expressed in transfected cells; host or cells: TeloHEAC cells
T1 sequence (Q13324 1-411): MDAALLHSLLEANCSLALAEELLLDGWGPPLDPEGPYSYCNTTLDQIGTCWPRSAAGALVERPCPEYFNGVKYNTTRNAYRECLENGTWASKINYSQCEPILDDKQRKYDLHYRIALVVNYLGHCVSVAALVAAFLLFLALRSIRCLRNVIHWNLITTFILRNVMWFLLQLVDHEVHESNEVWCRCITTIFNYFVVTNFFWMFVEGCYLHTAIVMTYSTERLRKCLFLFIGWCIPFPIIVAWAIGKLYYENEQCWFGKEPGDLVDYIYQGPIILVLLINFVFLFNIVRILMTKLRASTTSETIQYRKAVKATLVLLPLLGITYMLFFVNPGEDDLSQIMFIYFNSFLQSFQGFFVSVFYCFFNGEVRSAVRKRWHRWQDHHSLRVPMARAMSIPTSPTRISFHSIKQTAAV
In short: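 TeloHEAC cells stably expressing human CRF2a (10000 cells/well) were treated with 16-point 1:2 compound dilutions in HBSS/20 mM HEPES with IBMX for 30 min at 37° C. cAMP was read by HTRF (665/620 nm ratio). EC50 was the concentration giving 50% activation, with 100 nM urocortin 2 set as 100%.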

CFR1R receptor = target: T2, CFR1R receptor (Homo sapiens, UniProt P34998); experiment: Activity at anti-target CFR1R receptor, cAMP assay in CRF1R-overexpression CHO-K1 cells; assay type: cell-based; conditions: 100% = Sauvagine at 100 nM; for EC50: cAMP
T2 construct: host or cells: CHO-K1 (clone 2)
T2 sequence (P34998 24-415): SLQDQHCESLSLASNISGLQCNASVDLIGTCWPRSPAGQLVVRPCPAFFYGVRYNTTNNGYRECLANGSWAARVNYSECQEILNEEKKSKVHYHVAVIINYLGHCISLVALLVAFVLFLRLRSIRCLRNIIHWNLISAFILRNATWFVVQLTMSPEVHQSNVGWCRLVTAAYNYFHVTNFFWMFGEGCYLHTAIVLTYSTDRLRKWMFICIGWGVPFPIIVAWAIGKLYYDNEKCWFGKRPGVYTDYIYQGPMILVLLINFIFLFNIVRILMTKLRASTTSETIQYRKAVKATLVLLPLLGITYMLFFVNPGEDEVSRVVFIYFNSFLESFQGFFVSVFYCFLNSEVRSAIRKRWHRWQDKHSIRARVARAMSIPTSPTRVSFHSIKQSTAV
In short: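 Clone 2; cryopreserved stocks (10% DMSO); 4000 cells/well final; 100% activation = Sauvagine 100 nM; otherwise as TeloHAEC protocol.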

[1] = In vitro plasma stability, human plasma; assay type: in vitro ADME; set-up: dose or concentration left out as unconfirmed; conditions: Human PLM, 37° C.
Sprague Dawley rats = experiment: Effect on systolic blood pressure, telemetry in Sprague Dawley rats; assay type: in vivo, rat; conditions: 0.1 mg/kg SC; for Systolic blood pressure (Mean) % change from baseline, 8 h / Systolic blood pressure (Mean) % change from baseline, 12 h / Systolic blood pressure (Mean) % change from baseline, 24 h: n=2; for Duration of action: last time point with an effect on BP still observed
In short: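 Values are % change from a 1 h pre-dose baseline in systolic pressure, tracked by telemetry for up to 48 hours after a single 0.1 mg/kg subcutaneous dose. Rats (Sprague Dawley, n=2 per peptide) carried aortic catheters and recovered at least 10 days post-surgery; duration of action marks the last time point still showing an effect.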

[2] = Pharmacokinetics in male Sprague Dawley rats after subcutaneous administration; assay type: in vivo; conditions: plasma, rat

Structure (SMILES)	EC50 (human CRF2a receptor) [nM]	Emax (% I) (CFR1R receptor)	EC50 (CFR1R receptor) [nM]	remaining at 2 h [1] [%]	Systolic blood pressure (Mean) % change from baseline, 8 h (Sprague Dawley rats) [%]	Systolic blood pressure (Mean) % change from baseline, 12 h (Sprague Dawley rats) [%]	Systolic blood pressure (Mean) % change from baseline, 24 h (Sprague Dawley rats) [%]	Duration of action (Sprague Dawley rats) [h]	AUC(0-t) ([2]; IV, 0.05 mg/kg) [ng·h/mL]	half-life ([2]; IV, 0.05 mg/kg) [h]	Tmax ([2]; SC, 0.1 mg/kg) [h]	half-life ([2]; SC, 0.1 mg/kg) [h]
CC[C@H](C)[C@H](NC)C(=O)N[C@H](C(=O)N[C@@H](CC(C)C)C(=O)N[C@@H](CO)C(=O)N[C@@H](CC(C)C)C(=O)N[C@@H](CC(=O)O)C(=O)N[C@@H](C(=O)N1CCC[C@H]1C(=O)N[C@H](C(=O)N[C@@H](CCCCN)C(=O)N[C@@H](CC(C)C)C(=O)N[C@@H](CCCCNC(=O)CC[C@H](NC(=O)CCCCCCCCCCCCCCCCCCC(=O)O)C(=O)O)C(=O)N[C@@H](CCCCN)C(=O)N[C@H](C(=O)N[C@@H](CC(C)C)C(=O)N[C@@H](CC(C)C)C(=O)N[C@@H](CCC(=O)O)C(=O)N[C@@H](CCC(N)=O)C(=O)N[C@@H](CCC(=O)O)C(=O)N[C@@H](CCCCN)C(=O)N[C@@H](CCC(N)=O)C(=O)N[C@@H](CCCCN)C(=O)N[C@@H](CCC(=O)O)C(=O)N[C@@H](CCC(N)=O)C(=O)N[C@@H](CCCNC(=N)N)C(=O)N[C@@H](CCC(=O)O)C(=O)N[C@@H](CCC(N)=O)C(=O)N[C@@H](C)C(=O)N[C@@H](CCC(=O)O)C(=O)N[C@H](C(=O)N[C@@H](CC(N)=O)C(=O)NC(C)(C)C(=O)N[C@@H](CCC(N)=O)C(=O)N[C@H](C(=O)N[C@@H](CC(C)C)C(=O)N[C@@H](C)C(=O)N[C@@H](CCC(N)=O)C(=O)N[C@H](C(N)=O)C(C)C)[C@@H](C)CC)[C@@H](C)O)[C@@H](C)CC)[C@@H](C)CC)C(C)C)C(C)C [compound 218] (H-[NMeI]VLSLD[dV]PIKLK([γGlu-C20 diacid])KILLEQEKQKEQREQAETN[Aib]QILAQV-NH2)	0.11	24	> 250	99	−13	−17	−16	>24	6740	11	24	–
CC[C@H](C)[C@H](NC)C(=O)N[C@H](C(=O)N[C@@H](CC(C)C)C(=O)N[C@@H](CO)C(=O)N[C@@H](CC(C)C)C(=O)N[C@@H](CC(=O)O)C(=O)N[C@@H](C(=O)N1CCC[C@H]1C(=O)N[C@H](C(=O)N[C@@H](CCCCN)C(=O)N[C@@H](CC(C)C)C(=O)N[C@@H](CCCCNC(=O)COCCOCCNC(=O)COCCOCCNC(=O)CC[C@H](NC(=O)CCCCCCCCCCCCCCCCC(=O)O)C(=O)O)C(=O)N[C@@H](CCCCN)C(=O)N[C@H](C(=O)N[C@@H](CC(C)C)C(=O)N[C@@H](CC(C)C)C(=O)N[C@@H](CCC(=O)O)C(=O)N[C@@H](CCC(N)=O)C(=O)N[C@@H](CCC(=O)O)C(=O)N[C@@H](CCCCN)C(=O)N[C@@H](CCC(N)=O)C(=O)N[C@@H](CCCCN)C(=O)N[C@@H](CCCCN)C(=O)N[C@@H](CCC(N)=O)C(=O)N[C@@H](CCCNC(=N)N)C(=O)N[C@@H](CCC(=O)O)C(=O)N[C@@H](CCC(N)=O)C(=O)N[C@@H](C)C(=O)N[C@@H](CCC(=O)O)C(=O)N[C@H](C(=O)N[C@@H](CC(N)=O)C(=O)NC(C)(C)C(=O)N[C@@H](CCC(N)=O)C(=O)N[C@H](C(=O)N[C@@H](CC(C)C)C(=O)N[C@@H](C)C(=O)N[C@@H](CCC(N)=O)C(=O)N[C@H](C(N)=O)C(C)C)[C@@H](C)CC)[C@@H](C)O)[C@@H](C)CC)[C@@H](C)CC)C(C)C)C(C)C [compound 118] (H-[NMeI]VLSLD[dV]PIKLK([AEEA-AEEA-γGlu-C18 diacid])KILLEQEKQKKQREQAETN[Aib]QILAQV-NH2)	0.6	7	> 250	91	−24	−17	−4	>24	3900	5.2	8	5.2
CC[C@H](C)[C@H](NC(C)=O)C(=O)N[C@H](C(=O)N[C@@H](CC(C)C)C(=O)N[C@@H](CO)C(=O)N[C@@H](CC(C)C)C(=O)N[C@@H](CC(=O)O)C(=O)N[C@@H](C(=O)N1CCC[C@H]1C(=O)N[C@H](C(=O)N[C@@H](CCCCN)C(=O)N[C@@H](CC(C)C)C(=O)N[C@@H](CCCCNC(=O)CC[C@H](NC(=O)CCCCCCCCCCCCCCCCCCC(=O)O)C(=O)O)C(=O)N[C@@H](CCCCN)C(=O)N[C@H](C(=O)N[C@@H](CC(C)C)C(=O)N[C@@H](CC(C)C)C(=O)N[C@@H](CCC(=O)O)C(=O)N[C@@H](CCC(N)=O)C(=O)N[C@@H](CCC(=O)O)C(=O)N[C@@H](CCCCN)C(=O)N[C@@H](CCC(N)=O)C(=O)N[C@@H](CCCCN)C(=O)N[C@@H](CCCCN)C(=O)N[C@@H](CCC(N)=O)C(=O)N[C@@H](CCCNC(=N)N)C(=O)N[C@@H](CCC(=O)O)C(=O)N[C@@H](CCC(N)=O)C(=O)N[C@@H](C)C(=O)N[C@@H](CCC(=O)O)C(=O)N[C@H](C(=O)N[C@@H](CC(N)=O)C(=O)NC(C)(C)C(=O)N[C@@H](CCC(N)=O)C(=O)N[C@H](C(=O)N[C@@H](CC(C)C)C(=O)N[C@@H](C)C(=O)N[C@@H](CCC(N)=O)C(=O)N[C@H](C(N)=O)C(C)C)[C@@H](C)CC)[C@@H](C)O)[C@@H](C)CC)[C@@H](C)CC)C(C)C)C(C)C [compound 206] (Ac-IVLSLD[dV]PIKLK([γGlu-C20 diacid])KILLEQEKQKKQREQAETN[Aib]QILAQV-NH2)	0.11	42	–	–	−12	−16	−13	>24	8100	8	8	8
CC[C@H](C)[C@H](NC)C(=O)N[C@H](C(=O)N[C@@H](CC(C)C)C(=O)N[C@@H](CO)C(=O)N[C@@H](CC(C)C)C(=O)N[C@@H](CC(=O)O)C(=O)N[C@@H](C(=O)N1CCC[C@H]1C(=O)N[C@H](C(=O)N[C@@H](CCCCN)C(=O)N[C@@H](CC(C)C)C(=O)N[C@@H](CCCCNC(=O)CC[C@H](NC(=O)CCCCCCCCCCCCCCCCCCC(=O)O)C(=O)O)C(=O)N[C@@H](CCCCN)C(=O)N[C@H](C(=O)N[C@@H](CC(C)C)C(=O)N[C@@H](CC(C)C)C(=O)N[C@@H](CCC(=O)O)C(=O)N[C@@H](CCC(N)=O)C(=O)N[C@@H](CCC(=O)O)C(=O)N[C@@H](CCCCN)C(=O)N[C@@H](CCC(N)=O)C(=O)N[C@@H](CCCCN)C(=O)NC(C)(C)C(=O)N[C@@H](CCC(N)=O)C(=O)N[C@@H](CCCNC(=N)N)C(=O)N[C@@H](CCC(=O)O)C(=O)N[C@@H](CCC(N)=O)C(=O)N[C@@H](C)C(=O)N[C@@H](CCC(=O)O)C(=O)N[C@H](C(=O)N[C@@H](CC(N)=O)C(=O)NC(C)(C)C(=O)N[C@@H](CCC(N)=O)C(=O)N[C@H](C(=O)N[C@@H](CC(C)C)C(=O)N[C@@H](C)C(=O)N[C@@H](CCC(N)=O)C(=O)N[C@H](C(N)=O)C(C)C)[C@@H](C)CC)[C@@H](C)O)[C@@H](C)CC)[C@@H](C)CC)C(C)C)C(C)C [compound 215] (H-[NMeI]VLSLD[dV]PIKLK([γGlu-C20 diacid])KILLEQEKQK[Aib]QREQAETN[Aib]QILAQV-NH2)	0.12	19	> 250	–	−12	−14	−16	>24	7320	8	7	10
